Reference: ChEMBL document CHEMBL1201862, “PubChem BioAssay data set” (2004)
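Tested at 5 concentrations; 48 h exposure; 96-well plates; endpoints linearly interpolated, else capped at highest concentration. Abbreviation: GI50, concentration required for 50% inhibition of growth.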 Active and inactive are the calls of the source. Cut-off read from the data, not from the text of the source: active = GI50 up to about 1.1 µM and inactive = higher.

Tests used:
Assay in all cases: DTP human tumour cell line panel, 48 h
[1] = test system: HCT-15
[2] = test system: ACHN
[3] = test system: OVCAR-8
[4] = test system: HCC 2998
[5] = test system: HCT-116
[6] = test system: KM12
[7] = test system: CCRF-CEM
[8] = test system: OVCAR-5
[9] = test system: RXF 393
[10] = test system: OVCAR-3
[11] = test system: SK-MEL-2
[12] = test system: A549
[13] = test system: SNB-75
[14] = test system: MOLT-4
[15] = test system: OVCAR-4
[16] = test system: DU-145
[17] = test system: SF-295
[18] = test system: T47D
[19] = test system: Hs-578T
[20] = test system: MDA-MB-231

NCc1ccccc1-c1c2nc(c(-c3ccccc3CN)c3ccc([nH]3)c(-c3ccccc3CN)c3nc(c(-c4ccccc4CN)c4ccc1[nH]4)C=C3)C=C2
GI50 [1]: 22 µM | GI50 [2]: 16.4 µM (inactive) | GI50 [3]: 37 µM (inactive) | GI50 [4]: 25.9 µM (inactive) | GI50 [5]: 13.7 µM (inactive) | GI50 [6]: 20 µM (inactive) | GI50 [7]: 4.17 µM (inactive) | GI50 [8]: 13.9 µM (inactive) | GI50 [9]: 13.1 µM (inactive) | GI50 [10]: 16.2 µM (inactive) | GI50 [11]: 24.7 µM (inactive) | GI50 [12]: 22.1 µM (inactive) | GI50 [13]: 5.96 µM (inactive) | GI50 [14]: > 10 µM (inactive) | GI50 [15]: 19.4 µM (inactive)

O=C1C(=O)N(C2CCCCC2)C(=S)N1C1CCCCC1
GI50 [16]: > 100 µM (inactive) | GI50 [1]: > 100 µM | GI50 [2]: > 100 µM (inactive) | GI50 [3]: > 100 µM (inactive) | GI50 [17]: > 100 µM (inactive) | GI50 [4]: > 100 µM (inactive) | GI50 [5]: > 100 µM (inactive) | GI50 [6]: > 100 µM (inactive) | GI50 [7]: > 100 µM (inactive) | GI50 [8]: > 100 µM (inactive) | GI50 [18]: > 100 µM (inactive) | GI50 [9]: > 100 µM (inactive) | GI50 [19]: > 100 µM (inactive) | GI50 [11]: > 100 µM (inactive) | GI50 [12]: > 100 µM (inactive) | GI50 [13]: > 100 µM (inactive) | GI50 [20]: > 100 µM (inactive) | GI50 [14]: > 100 µM (inactive) | GI50 [15]: > 100 µM (inactive)

CCOC(=O)c1csc(NC(=O)CN2CCCCC2)n1
GI50 [16]: > 100 µM (inactive) | GI50 [1]: > 100 µM | GI50 [2]: > 100 µM (inactive) | GI50 [3]: > 100 µM (inactive) | GI50 [17]: > 100 µM (inactive) | GI50 [4]: > 100 µM (inactive) | GI50 [6]: > 100 µM (inactive) | GI50 [7]: > 100 µM (inactive) | GI50 [8]: > 100 µM (inactive) | GI50 [18]: > 100 µM (inactive) | GI50 [9]: > 100 µM (inactive) | GI50 [19]: > 100 µM (inactive) | GI50 [10]: > 100 µM (inactive) | GI50 [11]: > 100 µM (inactive) | GI50 [12]: > 100 µM (inactive) | GI50 [13]: > 100 µM (inactive) | GI50 [20]: > 100 µM (inactive) | GI50 [14]: > 100 µM (inactive) | GI50 [15]: > 100 µM (inactive)

O=C(/C=C1\Nc2ncccc2N=C1CC(=O)c1ccccc1)c1ccccc1
GI50 [16]: 12.9 µM (inactive) | GI50 [1]: 2 µM | GI50 [2]: 4.94 µM (inactive) | GI50 [3]: 5.93 µM (inactive) | GI50 [17]: 4.44 µM (inactive) | GI50 [6]: 6.43 µM (inactive) | GI50 [7]: 2.49 µM (inactive) | GI50 [8]: 23.5 µM (inactive) | GI50 [18]: 9.31 µM (inactive) | GI50 [19]: 15.6 µM (inactive) | GI50 [10]: 1.66 µM (inactive) | GI50 [11]: 12.6 µM (inactive) | GI50 [12]: 6.05 µM (inactive) | GI50 [13]: 20.4 µM (inactive) | GI50 [20]: 10.6 µM (inactive) | GI50 [14]: 3.4 µM (inactive) | GI50 [15]: 9.2 µM (inactive)

Cc1cc(C)c(-n2[nH]c(=O)n(C)c2=O)c(C)c1
GI50 [16]: > 100 µM (inactive) | GI50 [1]: > 100 µM | GI50 [3]: > 100 µM (inactive) | GI50 [4]: > 100 µM (inactive) | GI50 [5]: > 100 µM (inactive) | GI50 [6]: > 100 µM (inactive) | GI50 [7]: > 100 µM (inactive) | GI50 [8]: > 100 µM (inactive) | GI50 [18]: > 100 µM (inactive) | GI50 [9]: > 100 µM (inactive) | GI50 [19]: > 100 µM (inactive) | GI50 [10]: > 100 µM (inactive) | GI50 [11]: > 100 µM (inactive) | GI50 [12]: > 100 µM (inactive) | GI50 [13]: > 100 µM (inactive) | GI50 [20]: > 100 µM (inactive) | GI50 [14]: > 100 µM (inactive) | GI50 [15]: > 100 µM (inactive)

CC(C)(C)N(Cc1ccoc1)C(=O)/C=C\[S+]([O-])c1ccccc1 (centres undefined)
GI50 [16]: 12.5 µM (inactive) | GI50 [1]: 19.2 µM | GI50 [2]: 25.9 µM (inactive) | GI50 [3]: 14.4 µM (inactive) | GI50 [17]: 29.9 µM (inactive) | GI50 [4]: 18.5 µM (inactive) | GI50 [5]: 16.6 µM (inactive) | GI50 [6]: 16.6 µM (inactive) | GI50 [7]: 3.05 µM (inactive) | GI50 [8]: 25.2 µM (inactive) | GI50 [18]: 14.6 µM (inactive) | GI50 [19]: 28.4 µM (inactive) | GI50 [10]: 13.3 µM (inactive) | GI50 [11]: 20.9 µM (inactive) | GI50 [12]: 24.3 µM (inactive) | GI50 [20]: 20.2 µM (inactive) | GI50 [14]: 22.5 µM (inactive) | GI50 [15]: 20 µM (inactive)

COC(=O)NN1C(=O)C(=P(c2ccccc2)(c2ccccc2)c2ccccc2)C(C(=O)OC)=C1C
GI50 [1]: > 100 µM | GI50 [2]: > 100 µM (inactive) | GI50 [3]: > 100 µM (inactive) | GI50 [17]: > 100 µM (inactive) | GI50 [7]: > 100 µM (inactive) | GI50 [10]: > 100 µM (inactive) | GI50 [11]: > 100 µM (inactive) | GI50 [13]: > 100 µM (inactive) | GI50 [14]: > 100 µM (inactive)

O=C(O)/C=N\N=c1[nH]c2ccccc2[nH]1
GI50 [16]: > 100 µM (inactive) | GI50 [1]: > 100 µM | GI50 [2]: > 100 µM (inactive) | GI50 [3]: > 100 µM (inactive) | GI50 [17]: > 100 µM (inactive) | GI50 [4]: > 100 µM (inactive) | GI50 [5]: > 100 µM (inactive) | GI50 [6]: > 100 µM (inactive) | GI50 [7]: > 100 µM (inactive) | GI50 [8]: > 100 µM (inactive) | GI50 [18]: > 100 µM (inactive) | GI50 [19]: > 100 µM (inactive) | GI50 [10]: > 100 µM (inactive) | GI50 [11]: > 100 µM (inactive) | GI50 [12]: > 100 µM (inactive) | GI50 [13]: > 100 µM (inactive) | GI50 [20]: > 100 µM (inactive) | GI50 [14]: > 100 µM (inactive) | GI50 [15]: > 100 µM (inactive)
